In patent US9163035B2, “Melonine bisindole compounds, pharmaceutical compositions, preparation method and use thereof” (Kunming Institute of Botany, The Chinese Academy of Sciences, priority 2009, dated 2015):
pIC50: −log10 of the molar value. Like-named read-outs stand apart in the source and are kept apart here.

Columns and labels:
[1] = test system: SK-BR-3, human breast cancer cell strain; assay: IC50 test on tumor cells (MTT), SK-BR-3; type: cell-based; settings: SK-BR-3, MTT, 48 h, read-out: Half Inhibitory concentrations (IC50) on human tumor cell strain growth
Procedure: (§1) The melonines A, B, C and D as prepared in Example 1 were separately dissolved with dimethyl sulfoxide (DMSO) to form 1 mg/ml storage solutions, stored away from light for standby use.
(§2) Cisplatin was used as positive control.
(§3) (1) Inoculating cells: preparing cell suspension with culture medium comprising 10% fetal bovine serum (DMEM or RMPI1640), inoculating 96 wells plate with 10000-20000 cells per well (100 μl per well); if adherent cells are needed, inoculation and culture will be conducted 12 h in advance.
(§4) (2) adding a solution of compound to be tested (compound monomer of fixed concentration 40 μM for primary screening, crude extract of 100 μg/ml for primary screening, setting 5 concentrations for gradient repetitive screening for those compounds with a tumor cell growth inhibition rate of about 50% at the concentration for primary screening), final volume of 200 μl per well, and setting 3 repetitive wells for each treatment.
(§5) (3) Developing: culturing at 37° C. for 48 h, adding 20 μl of MTT solution to each well, continually incubating for 4 h, terminating cultivation, carefully discarding supernatant 100 μl to avoid cell lose, adding 20% SDS 100 μl to each well, incubating overnight (37° C.) to completely dissolve crystal.
(§6) (4) colorimetric analysis: selecting 595 nm wavelength, reading light absorption value of each well by […] (Bio-Rad 680), recording results, plotting cell growth curve using concentration as abscissa and cell survival rate as ordinate, and calculating IC50 value of compound using Reed and Muench method.
(§7) (5) Positive control: cisplatin.

[2] = test system: SMMC7721, human liver cancer cell strain; assay: IC50 test on tumor cells (MTT), SMMC7721; type: cell-based; settings: read-out: Half Inhibitory concentrations (IC50) on human tumor cell strain growth
Procedure: as §1, §2, §3, §4, §5, §6, §7

[3] = test system: HL-60, human leukemic cell strain; assay: IC50 test on tumor cells (MTT), HL-60; type: cell-based; settings: HL-60, MTT, 48 h, read-out: Half Inhibitory concentrations (IC50) on human tumor cell strain growth
Procedure: as §1, §2, §3, §4, §5, §6, §7

[4] = test system: PANC-1, human pancreatic cancer cell strain; assay: IC50 test on tumor cells (MTT), PANC-1; type: cell-based; settings: PANC-1, MTT, 48 h, read-out: Half Inhibitory concentrations (IC50) on human tumor cell strain growth
Procedure: as §1, §2, §3, §4, §5, §6, §7

[5] = test system: A549, human lung cancer cell strain; assay: IC50 test on tumor cells (MTT), A549; type: cell-based; settings: 48 h, read-out: Half Inhibitory concentrations (IC50) on human tumor cell strain growth
Procedure: as §1, §2, §3, §4, §5, §6, §7

[6] = Solubility (qualitative description); type: physicochemical
[7] = test system: human NCI-H460 nude mouse transplanted tumor; assay: Activity against nude mouse-transplanted tumors; type: in vivo, female BALB/cA nude mice; settings: 10 mg/kg intravenous, 3 times per week
Procedure: (§8) Test animals: female BALB/cA nude mice, 35-40 days, body weight 18-22 g, provided by Shanghai Slack, certificate no.: SCXK (Hu) 2007-0005. Divided into four groups:
Negative control group: 12 mice (intravenous injection with physiological saline, 3 times per week).
(§9) Administration group 1: 6 mice, intravenously administered with melonine C, in a dose of 20 mg/kg, 3 times per week.
(§10) Administration group 2: 6 mice, intravenously administered with melonine C, in a dose of 10 mg/kg, 3 times per week.
(§11) Administration group 3: 6 mice, intravenously administered with melonine C, in a dose of 2 mg/kg, 3 times per week.
Transplanted tumors: human NCI-H460 nude mouse transplanted tumor, established by subcutaneously inoculating human NCI-H460 cell strain to female BALB/c nude mice (from Shanghai Slack Co., Ltd.). Inoculated cell number was 3×10^6, the formed transplanted tumor after inoculation was then passaged 3 times in body of nude mice before use. […]
The well-grown tumor tissues were cut into 1.5 mm^3 pieces, inoculated into right-side armpit subcutaneously under sterile condition. The nude mouse transplanted tumore diameter was measured by vernier caliper, and the animals were grouped randomly when the tumore grew to 100-300 mm^3. […]

[8] = Body weight of NCI-H460 tumor-bearing nude mice; type: in vivo, female BALB/cA nude mice; settings: 20, 10 and 2 mg/kg intravenous, 3 times per week
Procedure: as §8, §9, §10, §11
The well-grown tumor tissues were cut into 1.5 mm^3 pieces, inoculated into right-side armpit subcutaneously under sterile condition. The nude mouse transplanted tumore diameter was measured by vernier caliper, and the animals were grouped randomly when the tumore grew to 100-300 mm^3. The antitumor effects of the compounds to be tested were observed by measuring tumor diameters. The number of measuring tumore diameters was 3 per week, and the mice were weighed simultaneously when each measurement was conducted. Melonine C was intravenously administered in doses of 20 mg/kg, 10 mg/kg, 2 mg/kg, separately, 3 times per week.

[9] = Acute toxicity test, mice; settings: mouse, in vivo, intravenous, tail vein injection
Procedure: (§12) Animal lines: healthy mice, rats. Age was 7-9 weeks. In the same batch of tests, the initial body weight of mice or rats should not be greater or less than the average body weight by 20%.
(§13) Administration route: tail vein injection for both rats and mice.
(§14) Measurement of median lethal dose (LD50):
Maximum tolerated dose (MTD) test method: MTD refers to a dose that causes significant toxic reaction without death in animals.
(§15) Test observation: the observation was performed for one week after administered with the drug to be tested, the time of appearance and disappearance of various toxic reactions was carefully observed and recorded for each animal. The observation and recording were performed twice on the day of administering the drug to be tested, then once per day in the following days. The contents to be observed and recorded include skin, mucous membrane, coat color, eyes, respiration, circulation, behaviors of autonomic and central nervous systems, etc. Before the drug to be tested was administered, one week after the drug to be tested was administered, when the animal died, and when the test was ended, the animals were weighed to get their body weights. All animals, including dead or executed animals, were subjected to autopsy, and histopathologic examination was performed for organs with abnormal autopsy results.

[10] = Acute toxicity test, rats; settings: rat, in vivo, intravenous, tail vein injection
Procedure: as §12, §13, §14, §15

[11] = Acute toxicity test, observation and autopsy; type: in vivo; settings: tail vein injection, immediately after dosing
Procedure: as §12, §13, §15

Row | Compound | pIC50 [1] | pIC50 ([2]; 48 h) | pIC50 [3] | pIC50 [4] | pIC50 [5] | pIC50 ([1]; Homo sapiens) | pIC50 ([2]; Homo sapiens, SMMC-7721, 48 h) | pIC50 ([3]; Homo sapiens) | pIC50 ([4]; Homo sapiens) | pIC50 ([5]; Homo sapiens) | solubility in acetone [6] | solubility in chloroform ([6]; chloroform) | solubility in methanol [6] | solubility in water [6] | relative tumor proliferation rate T/C (%) [7] | effect on the body weight [8] | LD50 at 1 week ([9]; mice) | MTD at 1 week ([9]; printed on the mice line, read-out: MTD (maximum tolerated dose)) | LD50 at 1 week [10] | toxic reactions observed [11]
1 | N.N.[Cl][Pt][Cl] [Cisplatine, Cisplatin, reference compound] | 4.65 | 4.85 | 6.12 | 4.71 | 4.58 |  |  |  |  |  |  |  |  |  |  |  |  |  |  | 
2 | CCC12CCCNC3=C(C(=O)C(=O)C=C3C3CC4(CC)CCCN5CCc6c(n3c3ccccc63)C54)C3=C1N(CCC2)CC3 (centres unmarked) [Melonine A, melonine A] |  |  |  |  |  | 4.81 | 4.94 | 5.55 | < 4.40 | 4.66 | Easily soluble | Easily soluble | Easily soluble | slightly soluble |  |  |  |  |  | 
3 | CCC12CCCN3CCc4c(n(c5ccccc45)C(c4ccc(O)c5c4NC4CCC6(CC)CCCN7CCC54C76)C1)C32 (centres unmarked) [Melonine C, melonine C] |  |  |  |  |  | 5.44 | 5.56 | 6.18 | 5.42 | 5.52 | slightly soluble |  | easily soluble | slightly soluble | 56.41% | no significant effect | 32 mg/kg | 22 mg/kg | 20 mg/kg | accelerated breathing, ataxia, convulsions, or even died
4 | CCC12CCCN3CCc4c(n(c5ccccc45)C(c4cc5c(cc4O)N4CCCC6(CC)CCCN7CCC5(OC)C746)C1)C32 (centres unmarked) [Melonine B, melonine B] |  |  |  |  |  | 5.11 | 5.13 | 5.60 | 4.84 | 4.83 | slightly soluble |  | Easily soluble | slightly soluble |  |  |  |  |  | 
5 | CCC12CCCN3CCc4c(n(c5ccccc45)C(c4ccc(O)c5c4N=C4CCC6(CC)CCCN7CCC45C76)C1)C32 (centres unmarked) [Melonine D, melonine D] |  |  |  |  |  | 4.63 | 4.74 | 5.56 | 4.63 | 4.96 | slightly soluble |  | Easily soluble | slightly soluble |  |  |  |  |  | 
